Experiments:
Experiment in all cases: greenhouse post-emergence herbicidal test
Format in all cases: in vivo
Settings in all cases: application rates of 0.25 or 0.125 kg/ha
Amaranthus retroflexus = tested on: Amaranthus retroflexus
Description: (§1) The seeds of the test plants were sown separately for each species. For the post-emergence treatment, the test plants were first grown to a height of from 3 to 15 cm, depending on the plant habit, and only then treated with the active compounds which had been suspended or emulsified in water. The test plants were for this purpose either sown directly and grown in the same containers, or they were first grown separately as seedlings and transplanted into the test containers a few days prior to treatment. The application rate for the post-emergence treatment was 0.25 or 0.125 kg of a.s. (active substance)/ha. Depending on the species, the plants were kept at 10-25° C. or 20-35° C. The test period extended over 2 to 4 weeks. During this time, the plants were tended, and their response to the individual treatments was evaluated. Evaluation was carried out using a scale from 0 to 100. 100 means no emergence of the plants, or complete destruction of at least the above-ground parts, and 0 means no damage, or normal course of growth. The plants used in the greenhouse experiments were of the following species: [table]

Galium aparine = tested on: Galium aparine
Description: as §1

Pharbitis purpurea = tested on: Pharbitis purpurea
Description: as §1

Chenopodium album = tested on: Chenopodium album
Description: as §1

Measured: post-emergence action

Cc1c(F)c(Oc2csc(C(F)(F)F)c2)nc(-n2ccc(C(F)(F)F)n2)c1F [compound 3.1, 3,5-Difluoro-4-methyl-2-(3-trifluoromethyl-1H-pyrazol-1-yl)-6-(5-trifluoromethyl-3-thienyloxy)pyridine]
very good: all assays above

Reference: US20040198609A1, “4-alkyl-substituted thienyloxy-pyridines” (priority 2001, published 2004)
